Reference: patent US11760754B2, “Heterocyclic mitochondrial activity inhibitors and uses thereof” (UNIVERSITÉ DE MONTRÉAL, priority 2017, dated 2023)

Key:
MLL-AF9 cells = test: MLL-AF9 leukemia cell growth inhibition, dose-response viability assay (CellTiterGlo); format: cell-based, murine; settings: Mus musculus, MLL-AF9, 120 h, read-out: MLL-AF9 EC50
In short: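 Murine MLL-AF9 leukemia cells (female, MSCV MLL-AF9 IRES Puro transduced) were treated with serial compound dilutions from 10 μM to 0.5 nM in duplicates or quadruplicates. Viability read by CellTiterGlo dose-response.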

OCI-AML3 cells = test: OCI-AML3 cell growth inhibition, dose-response viability assay (CellTiterGlo); format: cell-based; settings: for EC50: Homo sapiens, OCI-AML-3, 144 h, read-out: AML-3 EC50
In short: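 OCI-AML3 cells seeded, then exposed to compound in serial dilutions from 10 μM to 0.5 nM, in duplicate or quadruplicate. Viability read by CellTiter-Glo.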

AML patient cells = test: Primary AML patient cell dose-response viability assay (chemical screen); settings: 41 AML patient specimens, primary screen

Structure (SMILES)	EC50 (MLL-AF9 cells)	EC50 (OCI-AML3 cells)	OCI-AML3 cells sensitive to the compound (dose response) (OCI-AML3 cells; OCI-AML3 cells)	sensitivity of AML patient specimens (AML patient cells)
Fc1cc(F)c2cc(-c3nc(COc4ccc(CCCCn5ccnn5)cc4)co3)[nH]c2c1 [Compound 128, 4-((4-(4-(1H-1,2,3-triazol-1-yl)butyl)phenoxy)methyl)-2-(4,6-difluoro-1H-indol-2-yl)oxazole]	< 50 nM	< 50 nM		
O=[N+]([O-])c1ccc2cc(-c3nc(COc4ccc(CCCCn5ccnn5)cc4)co3)[nH]c2c1 [Compound 129, 4-((4-(4-(1H-1,2,3-triazol-1-yl)butyl)phenoxy)methyl)-2-(6-nitro-1H-indol-2-yl)oxazole]	< 50 nM	< 50 nM		
Fc1cc(C(F)(F)F)ccc1/C=C/c1nc(COc2ccc(SCCCn3ccnn3)cc2)co1 [Compound 130, (E)-4-((4-((3-(1H-1,2,3-triazol-1-yl)propyl)thio)phenoxy)methyl)-2-(2-fluoro-4-(trifluoromethyl)styryl)oxazole]	< 50 nM	< 50 nM		
Fc1cc(C(F)(F)F)ccc1/C=C/c1nc(COc2ccc(CCCCn3ccnn3)cc2)cs1 [Compound 131, (E)-4-((4-(4-(1H-1,2,3-triazol-1-yl)butyl)phenoxy)methyl)-2-(2-fluoro-4-(trifluoromethyl)styryl)thiazole]	100 to 500 nM	100 to 500 nM		
Fc1cc(C(F)(F)F)ccc1/C=C/c1nc(CSc2ccc(CCCn3ccnn3)cc2)co1 [Compound 132, (E)-4-(((4-(3-(1H-1,2,3-triazol-1-yl)propyl)phenyl)thio)methyl)-2-(2-fluoro-4-(trifluoromethyl)styryl)oxazole]	500 to 1000 nM	1000 to 10000 nM		
Fc1cc(C(F)(F)F)ccc1/C=C/c1nc(COc2ccc(CCCCn3ccnn3)nc2)co1 [Compound 133, (E)-4-(((6-(4-(1H-1,2,3-triazol-1-yl)butyl)pyridin-3-yl)oxy)methyl)-2-(2-fluoro-4-(trifluoromethyl)styryl)oxazole]	50 to 100 nM	100 to 500 nM		
Fc1cc(C(F)(F)F)ccc1/C=C/c1nc(Cc2ccc(CCCCn3ccnn3)cc2)co1 [Compound 134, (E)-4-(4-(4-(1H-1,2,3-triazol-1-yl)butyl)benzyl)-2-(2-fluoro-4-(trifluoromethyl)styryl)oxazole]	500 to 1000 nM	1000 to 10000 nM		
Fc1cc(C(F)(F)F)ccc1/C=C/c1nc(COc2ccc(CCCCc3cccnn3)cc2)co1 [Compound 138, (E)-2-(2-fluoro-4-(trifluoromethyl)styryl)-4-((4-(4-(pyridazin-3-yl)butyl)phenoxy)methyl)oxazole]	50 to 100 nM	< 50 nM		
Fc1cc(C(F)(F)F)ccc1/C=C/c1nc(COc2ccc(CCCCc3ncccn3)cc2)co1 [Compound 139, (E)-2-(2-fluoro-4-(trifluoromethyl)styryl)-4-((4-(4-(pyrimidin-2-yl)butyl)phenoxy)methyl)oxazole]	1000 to 10000 nM	> 10000 nM		
Fc1cc(C(F)(F)F)ccc1/C=C/c1nc(COc2ccc(CCCCc3ccccn3)cc2)co1 [Compound 140, (E)-2-(2-fluoro-4-(trifluoromethyl)styryl)-4-((4-(4-(pyridin-2-yl)butyl)phenoxy)methyl)oxazole]	1000 to 10000 nM	> 10000 nM		
N#Cc1ccc(/C=C/c2nc(COc3ccc(SCCCn4ccnn4)cc3)co2)c(F)c1 [Compound 141, (E)-4-(2-(4-((4-((3-(1H-1,2,3-triazol-1-yl)propyl)thio)phenoxy)methyl)oxazol-2-yl)vinyl)-3-fluorobenzonitrile]	50 to 100 nM	< 50 nM		
Fc1ccc2cc(-c3nc(COc4ccc(CCCCn5ccnn5)cc4)co3)oc2c1 [Compound 142, 4-((4-(4-(1H-1,2,3-triazol-1-yl)butyl)phenoxy)methyl)-2-(6-fluorobenzofuran-2-yl)oxazole]	100 to 500 nM	500 to 1000 nM		
Fc1ccc2cc(-c3nc(COc4ccc(CCCCn5ccnn5)cc4)co3)sc2c1 [Compound 143, 4-((4-(4-(1H-1,2,3-triazol-1-yl)butyl)phenoxy)methyl)-2-(6-fluorobenzo[b]thiophen-2-yl)oxazole]	100 to 500 nM	1000 to 10000 nM		
Fc1cc(F)c2cc(-c3nc(COc4ccc(SCCCn5ccnn5)cc4)co3)[nH]c2c1 [Compound 144, 4-((4-((3-(1H-1,2,3-triazol-1-yl)propyl)thio)phenoxy)methyl)-2-(4,6-difluoro-1H-indol-2-yl)oxazole]	< 50 nM	< 50 nM		
Cc1oc(/C=C/c2ccc(C(F)(F)F)cc2F)nc1COc1ccc(CCCCn2ccnn2)cc1 [Compound 145, (E)-4-((4-(4-(1H-1,2,3-triazol-1-yl)butyl)phenoxy)methyl)-2-(2-fluoro-4-(trifluoromethyl)styryl)-5-methyloxazole]	100 to 500 nM	500 to 1000 nM		
Fc1cc(C(F)(F)F)ccc1/C=C/c1nc(CSc2ccc(CCCCn3ccnn3)cc2)co1 [Compound 146, (E)-4-(((4-(4-(1H-1,2,3-triazol-1-yl)butyl)phenyl)thio)methyl)-2-(2-fluoro-4-(trifluoromethyl)styryl)oxazole]	100 to 500 nM	1000 to 10000 nM		
Fc1cc(C(F)(F)F)ccc1/C=C/c1nc(COc2ccc(SCCn3ccnn3)cc2)co1 [Compound 147, (E)-4-((4-((2-(1H-1,2,3-triazol-1-yl)ethyl)thio)phenoxy)methyl)-2-(2-fluoro-4-(trifluoromethyl)styryl)oxazole]	< 50 nM	< 50 nM		
CS(=O)(=O)CCNCc1ccc(-c2ccc3ncnc(Nc4ccc(OCc5cccc(F)c5)c(Cl)c4)c3c2)o1 [Lapatinib, Lapatinib ditosylate, reference compound]			not	resistant
